Results as given in patent US8293768B2, “Organic compounds” (Novartis AG, priority 2006, dated 2012).

| Structure (SMILES) | melting point [°C] |
| --- | --- |
| Cc1cc(-c2sc(N3CCN(Cc4ccc(F)cc4)C3=O)nc2C)n[nH]1 [Example 40.1, 1-(4-fluorobenzyl)-3-(4-methyl-5-(5-methyl-1H-pyrazol-3-yl)thiazol-2-yl)imidazolidin-2-one] | 218 to 221 |
| Cc1nc(N2CCCN(Cc3ccc(F)cc3)C2=O)sc1C(=O)NCc1cccnc1 [Example 32.25, 2-(3-(4-fluorobenzyl)-2-oxotetrahydropyrimidin-1(2H)-yl)-4-methyl-N-(pyridin-3-ylmethyl)thiazole-5-carboxamide] | 48 to 50 |
| Cc1nc(N2CCN(Cc3ccc(C(F)(F)F)cc3)C2=O)sc1-c1cnco1 [Example 43, 1-(4-methyl-5-(oxazol-5-yl)thiazol-2-yl)-3-(4-(trifluoromethyl)benzyl)-imidazolidin-2-one] | 160 to 162 |
| Cc1cc(-n2cnn(Cc3ccccc3)c2=O)sc1C(=O)NCc1cccnc1 [Example 31.1, 5-(1-benzyl-5-oxo-1H-1,2,4-triazol-4(5H)-yl)-3-methyl-N-(pyridin-3-ylmethyl)thiophene-2-carboxamide] | 180 to 181 |
| Cc1nc(N2CCN(Cc3csc4ccc(Cl)cc34)C2=O)sc1C(=O)NCc1cccnc1 [Example 32, 2-(3-((5-chlorobenzo[b]thiophen-3-yl)methyl)-2-oxoimidazolidin-1-yl)-4-methyl-N-(pyridin-3-ylmethyl)thiazole-5-carboxamide] | 185 to 187 |
| Cc1nc(N2CCN(Cc3ccc4nsnc4c3)C2=O)sc1C(=O)NCc1cccnc1 [Example 32.7, 2-(3-(benzo[c][1,2,5]thiadiazol-5-ylmethyl)-2-oxoimidazolidin-1-yl)-4-methyl-N-(pyridin-3-ylmethyl)thiazole-5-carboxamide] | 105 to 107 |
| Cc1nc(N2CCN(CCc3c[nH]c4ccccc34)C2=O)sc1C(=O)NCc1cccnc1 [Example 32.20, 2-(3-(2-(1H-indol-3-yl)ethyl)-2-oxoimidazolidin-1-yl)-4-methyl-N-(pyridin-3-ylmethyl)thiazole-5-carboxamide] | 198 to 201 |
| Cc1nc(N2CCN(Cc3ccc(F)cc3)C2=O)sc1C(=O)NCc1cnccn1 [Example 32.17, 2-(3-(4-fluorobenzyl)-2-oxoimidazolidin-1-yl)-4-methyl-N-(pyrazin-2-ylmethyl)thiazole-5-carboxamide] | 185 to 187 |
| Cc1nc(N2CCN(Cc3ccc(OC(F)(F)F)cc3)C2=O)sc1C(=O)NCCc1ccccc1 [Example 9.31, 4-methyl-2-(2-oxo-3-(4-(trifluoromethoxy)benzyl)imidazolidin-1-yl)-N-phenethylthiazole-5-carboxamide] | 184 to 185 |
| Cc1cnc(CNC(=O)c2sc(N3CCN(CC4CC4)C3=O)nc2C)cn1 [Example 9.34, 2-(3-(cyclopropylmethyl)-2-oxoimidazolidin-1-yl)-4-methyl-N-((5-methylpyrazin-2-yl)methyl)thiazole-5-carboxamide] | 161 to 163 |
| Cc1nc(-n2ccn(Cc3ccc(F)cc3)c2=O)sc1C(=O)NCc1ccccc1 [Example 17, N-benzyl-2-(3-(4-fluorobenzyl)-2-oxo-2,3-dihydro-1H-imidazol-1-yl)-4-methylthiazole-5-carboxamide] | 167 to 168 |
| Cc1cc(N2CCN(CC3CC3)C2=O)sc1C(=O)NCc1cccnc1 [Example 15.3, 5-(3-(cyclopropylmethyl)-2-oxoimidazolidin-1-yl)-3-methyl-N-(pyridin-3-ylmethyl)thiophene-2-carboxamide] | 157 to 159 |
| Cc1nc(N2CCN(Cc3ccccc3C(=O)O)C2=O)sc1C(=O)NCc1ccccc1 [Example 25.4, 2-((3-(5-(benzylcarbamoyl)-4-methylthiazol-2-yl)-2-oxoimidazolidin-1-yl)methyl)benzoic acid] | 153 to 156 |
| Cc1nc(N2C(=O)N(CCc3ccc(F)cc3)CC2O)sc1C(=O)NCc1cccnc1 (stereo not shown) [Example 16.1, 2-(3-(4-fluorophenethyl)-5-hydroxy-2-oxoimidazolidin-1-yl)-4-methyl-N-(pyridin-3-ylmethyl)thiazole-5-carboxamide] | 182 to 184 |
| Cc1nc(N2CCN(Cc3ccncc3)C2=O)sc1C(=O)NCc1cccnc1 [Example 33, 4-methyl-2-(2-oxo-3-(pyridin-4-ylmethyl)imidazolidin-1-yl)-N-(pyridin-3-ylmethyl)thiazole-5-carboxamide] | 233 to 235 |
| Cc1nc(CNC(=O)c2sc(-n3cnn(Cc4ccc(F)cc4)c3=O)cc2C)cs1 [Example 31.8, 5-(1-(4-fluorobenzyl)-5-oxo-1H-1,2,4-triazol-4(5H)-yl)-3-methyl-N-((2-methylthiazol-4-yl)methyl)thiophene-2-carboxamide] | 148 to 150 |
| Cc1ncc(CNC(=O)c2sc(-n3cnn(Cc4ccc(F)cc4)c3=O)nc2C)s1 [Example 21.11, 2-(1-(4-fluorobenzyl)-5-oxo-1H-1,2,4-triazol-4(5H)-yl)-4-methyl-N-((2-methylthiazol-5-yl)methyl)thiazole-5-carboxamide] | 176 to 177 |
| Cc1nc(-n2cnn(Cc3c(C)noc3C)c2=O)sc1C(=O)NCc1cccnc1 [Example 19.7, 2-(1-((3,5-dimethylisoxazol-4-yl)methyl)-5-oxo-1H-1,2,4-triazol-4(5H)-yl)-4-methyl-N-(pyridin-3-ylmethyl)thiazole-5-carboxamide] | 233 to 234 |
| Cc1nc(-n2cnn(Cc3ccc(F)cc3)c2=O)sc1C(=O)NCc1nccs1 [Example 21.12, 2-(1-(4-fluorobenzyl)-5-oxo-1H-1,2,4-triazol-4(5H)-yl)-4-methyl-N-(thiazol-2-ylmethyl)thiazole-5-carboxamide] | 189 to 190 |
| Cc1nc(-n2cn[nH]c2=O)sc1C(=O)NCc1cccnc1 [Example 21.7, 4-methyl-2-(5-oxo-1H-1,2,4-triazol-4(5H)-yl)-N-(pyridin-3-ylmethyl)thiazole-5-carboxamide] | 278 to 279 |
| Cc1nc(N2CCN(Cc3ccccc3)C2=O)sc1C(=O)NCc1cccc(Cl)c1 [Example 9.6, 2-(3-benzyl-2-oxoimidazolidin-1-yl)-N-(3-chlorobenzyl)-4-methylthiazole-5-carboxamide] | 178 to 179 |
| Cc1nc(N2CCN(CCC3CC3)C2=O)sc1C(=O)NCc1cccnc1 [Example 9.26, 2-(3-(2-cyclopropylethyl)-2-oxoimidazolidin-1-yl)-4-methyl-N-(pyridin-3-ylmethyl)thiazole-5-carboxamide] | 146 to 147 |
| Cc1cc(N2CCN(Cc3ccc(N)cc3)C2=O)sc1C(=O)NCc1cccnc1 [Example 58, 5-(3-(4-aminobenzyl)-2-oxoimidazolidin-1-yl)-3-methyl-N-(pyridin-3-ylmethyl)thiophene-2-carboxamide] | 118 to 120 |
| Cc1nc(N2CCN(Cc3ccc(F)cc3)C2=O)sc1C(=O)NCc1ccc(F)cc1 [Example 9.20, N-(4-fluorobenzyl)-2-(3-(4-fluorobenzyl)-2-oxoimidazolidin-1-yl)-4-methylthiazole-5-carboxamide] | 177 to 178 |
| Cc1nc(N2CCNC2=O)sc1C(=O)NCc1ccccc1 [Example 22, N-benzyl-4-methyl-2-(2-oxoimidazolidin-1-yl)thiazole-5-carboxamide] | 226 to 228 |
